Where two headings read alike, the source gives them in different places.
Legend:
Test in all cases: biochemical
Assay type in all cases: biochemical
[1] = biological target: 363 human kinases (including Aurora A/B/C) (Homo sapiens, UniProt Q9UPE1); conditions: MSSK1/STK23; for remaining activity at 0.1 µM: 100 nM; for remaining activity at 0.1 µM / remaining activity at 0.5 µM: read-out: % Enzyme Activity (relative to DMSO controls)
Text: (§1) However, the Aurora A/B selectivity ratios derived from our in vitro and in vivo data can be compared to prioritize inhibitors.

[2] = biological target: T1, 363 human kinases (including Aurora A/B/C) (Homo sapiens, UniProt Q09013); conditions: DMPK, [ATP] 15 µM; for remaining activity at 0.1 µM: 100 nM; for remaining activity at 0.1 µM / remaining activity at 0.5 µM: read-out: % Enzyme Activity (relative to DMSO controls)
T1 sequence (Q09013 1-629): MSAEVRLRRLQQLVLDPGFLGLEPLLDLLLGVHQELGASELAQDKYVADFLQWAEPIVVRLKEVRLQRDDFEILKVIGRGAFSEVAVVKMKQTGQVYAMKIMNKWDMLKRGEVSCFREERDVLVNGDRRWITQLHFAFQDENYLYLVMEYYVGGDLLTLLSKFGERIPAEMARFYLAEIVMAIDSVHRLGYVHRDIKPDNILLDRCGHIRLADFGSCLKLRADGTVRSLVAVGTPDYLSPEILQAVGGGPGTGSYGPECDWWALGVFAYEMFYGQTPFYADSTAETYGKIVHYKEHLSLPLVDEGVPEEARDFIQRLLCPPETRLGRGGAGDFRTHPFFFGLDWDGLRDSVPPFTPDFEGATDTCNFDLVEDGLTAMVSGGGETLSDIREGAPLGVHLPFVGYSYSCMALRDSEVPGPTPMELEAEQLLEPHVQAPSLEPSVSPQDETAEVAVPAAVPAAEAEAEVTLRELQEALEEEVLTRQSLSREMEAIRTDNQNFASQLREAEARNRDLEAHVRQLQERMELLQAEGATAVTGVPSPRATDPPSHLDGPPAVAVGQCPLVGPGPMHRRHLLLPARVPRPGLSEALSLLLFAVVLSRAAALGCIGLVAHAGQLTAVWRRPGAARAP
Text: as §1

[3] = biological target: 363 human kinases (including Aurora A/B/C) (Homo sapiens, UniProt P11802); conditions: for remaining activity at 0.1 µM: 100 nM; for remaining activity at 0.1 µM / remaining activity at 0.5 µM: read-out: % Enzyme Activity (relative to DMSO controls); for remaining activity at 0.5 µM / % Enzyme Activity (relative to DMSO controls): 500 nM
Text: as §1

[4] = biological target: 363 human kinases (including Aurora A/B/C) (Homo sapiens, UniProt Q15418); conditions: RSK1; for remaining activity at 0.1 µM: 100 nM; for remaining activity at 0.1 µM / remaining activity at 0.5 µM: read-out: % Enzyme Activity (relative to DMSO controls)
Text: as §1

[5] = biological target: T2, 363 human kinases (including Aurora A/B/C) (Homo sapiens, UniProt P29322); conditions: EPHA8, [ATP] 100 µM; for remaining activity at 0.1 µM: 100 nM; for remaining activity at 0.1 µM / remaining activity at 0.5 µM: read-out: % Enzyme Activity (relative to DMSO controls)
T2 sequence (P29322 28-1005): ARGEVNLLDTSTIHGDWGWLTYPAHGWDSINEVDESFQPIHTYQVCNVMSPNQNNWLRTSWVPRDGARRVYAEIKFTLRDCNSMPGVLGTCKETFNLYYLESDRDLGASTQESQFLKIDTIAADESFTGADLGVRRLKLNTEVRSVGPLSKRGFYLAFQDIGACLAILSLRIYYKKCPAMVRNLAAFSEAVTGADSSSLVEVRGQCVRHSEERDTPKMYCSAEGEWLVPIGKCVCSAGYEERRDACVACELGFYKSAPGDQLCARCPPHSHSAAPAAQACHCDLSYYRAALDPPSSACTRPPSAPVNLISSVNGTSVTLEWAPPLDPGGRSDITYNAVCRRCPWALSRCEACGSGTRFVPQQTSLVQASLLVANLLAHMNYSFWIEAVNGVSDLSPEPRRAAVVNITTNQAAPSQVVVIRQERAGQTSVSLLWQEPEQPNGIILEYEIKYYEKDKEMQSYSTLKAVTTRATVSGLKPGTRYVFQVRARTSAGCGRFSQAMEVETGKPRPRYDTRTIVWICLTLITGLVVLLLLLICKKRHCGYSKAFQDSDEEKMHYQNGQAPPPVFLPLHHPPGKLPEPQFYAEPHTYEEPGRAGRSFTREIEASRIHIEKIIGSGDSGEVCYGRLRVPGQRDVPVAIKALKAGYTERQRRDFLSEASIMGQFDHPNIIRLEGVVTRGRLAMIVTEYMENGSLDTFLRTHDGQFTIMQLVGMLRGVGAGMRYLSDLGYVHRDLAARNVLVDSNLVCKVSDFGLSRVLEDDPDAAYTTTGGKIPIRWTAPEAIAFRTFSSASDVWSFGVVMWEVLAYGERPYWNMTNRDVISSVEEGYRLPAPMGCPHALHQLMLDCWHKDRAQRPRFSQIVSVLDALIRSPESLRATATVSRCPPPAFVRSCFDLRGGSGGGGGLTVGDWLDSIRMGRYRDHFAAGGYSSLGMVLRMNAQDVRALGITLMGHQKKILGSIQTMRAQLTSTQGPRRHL
Text: as §1

[6] = biological target: T3, 363 human kinases (including Aurora A/B/C) (Homo sapiens, UniProt O14733); conditions: MKK7; for remaining activity at 0.1 µM: 100 nM; for remaining activity at 0.1 µM / remaining activity at 0.5 µM: read-out: % Enzyme Activity (relative to DMSO controls)
T3 sequence (O14733 1-419): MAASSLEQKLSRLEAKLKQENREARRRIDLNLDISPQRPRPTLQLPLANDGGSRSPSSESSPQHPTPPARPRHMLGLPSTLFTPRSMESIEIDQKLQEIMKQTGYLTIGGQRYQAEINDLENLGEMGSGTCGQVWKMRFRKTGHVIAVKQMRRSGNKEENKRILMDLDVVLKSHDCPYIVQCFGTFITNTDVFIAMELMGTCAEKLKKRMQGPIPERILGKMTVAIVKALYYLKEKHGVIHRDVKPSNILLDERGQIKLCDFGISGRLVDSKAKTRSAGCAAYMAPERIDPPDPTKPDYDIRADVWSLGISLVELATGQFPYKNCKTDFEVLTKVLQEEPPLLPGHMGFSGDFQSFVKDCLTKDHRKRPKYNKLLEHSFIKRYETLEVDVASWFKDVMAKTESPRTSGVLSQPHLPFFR
Text: as §1

[7] = biological target: 363 human kinases (including Aurora A/B/C) (Homo sapiens, UniProt P08922); conditions: ROS/ROS1; for remaining activity at 0.1 µM: 100 nM; for remaining activity at 0.1 µM / remaining activity at 0.5 µM: read-out: % Enzyme Activity (relative to DMSO controls)
363 human kinases (including Aurora A/B/C) (Homo sapiens, UniProt P08922), sequence (P08922 28-2347): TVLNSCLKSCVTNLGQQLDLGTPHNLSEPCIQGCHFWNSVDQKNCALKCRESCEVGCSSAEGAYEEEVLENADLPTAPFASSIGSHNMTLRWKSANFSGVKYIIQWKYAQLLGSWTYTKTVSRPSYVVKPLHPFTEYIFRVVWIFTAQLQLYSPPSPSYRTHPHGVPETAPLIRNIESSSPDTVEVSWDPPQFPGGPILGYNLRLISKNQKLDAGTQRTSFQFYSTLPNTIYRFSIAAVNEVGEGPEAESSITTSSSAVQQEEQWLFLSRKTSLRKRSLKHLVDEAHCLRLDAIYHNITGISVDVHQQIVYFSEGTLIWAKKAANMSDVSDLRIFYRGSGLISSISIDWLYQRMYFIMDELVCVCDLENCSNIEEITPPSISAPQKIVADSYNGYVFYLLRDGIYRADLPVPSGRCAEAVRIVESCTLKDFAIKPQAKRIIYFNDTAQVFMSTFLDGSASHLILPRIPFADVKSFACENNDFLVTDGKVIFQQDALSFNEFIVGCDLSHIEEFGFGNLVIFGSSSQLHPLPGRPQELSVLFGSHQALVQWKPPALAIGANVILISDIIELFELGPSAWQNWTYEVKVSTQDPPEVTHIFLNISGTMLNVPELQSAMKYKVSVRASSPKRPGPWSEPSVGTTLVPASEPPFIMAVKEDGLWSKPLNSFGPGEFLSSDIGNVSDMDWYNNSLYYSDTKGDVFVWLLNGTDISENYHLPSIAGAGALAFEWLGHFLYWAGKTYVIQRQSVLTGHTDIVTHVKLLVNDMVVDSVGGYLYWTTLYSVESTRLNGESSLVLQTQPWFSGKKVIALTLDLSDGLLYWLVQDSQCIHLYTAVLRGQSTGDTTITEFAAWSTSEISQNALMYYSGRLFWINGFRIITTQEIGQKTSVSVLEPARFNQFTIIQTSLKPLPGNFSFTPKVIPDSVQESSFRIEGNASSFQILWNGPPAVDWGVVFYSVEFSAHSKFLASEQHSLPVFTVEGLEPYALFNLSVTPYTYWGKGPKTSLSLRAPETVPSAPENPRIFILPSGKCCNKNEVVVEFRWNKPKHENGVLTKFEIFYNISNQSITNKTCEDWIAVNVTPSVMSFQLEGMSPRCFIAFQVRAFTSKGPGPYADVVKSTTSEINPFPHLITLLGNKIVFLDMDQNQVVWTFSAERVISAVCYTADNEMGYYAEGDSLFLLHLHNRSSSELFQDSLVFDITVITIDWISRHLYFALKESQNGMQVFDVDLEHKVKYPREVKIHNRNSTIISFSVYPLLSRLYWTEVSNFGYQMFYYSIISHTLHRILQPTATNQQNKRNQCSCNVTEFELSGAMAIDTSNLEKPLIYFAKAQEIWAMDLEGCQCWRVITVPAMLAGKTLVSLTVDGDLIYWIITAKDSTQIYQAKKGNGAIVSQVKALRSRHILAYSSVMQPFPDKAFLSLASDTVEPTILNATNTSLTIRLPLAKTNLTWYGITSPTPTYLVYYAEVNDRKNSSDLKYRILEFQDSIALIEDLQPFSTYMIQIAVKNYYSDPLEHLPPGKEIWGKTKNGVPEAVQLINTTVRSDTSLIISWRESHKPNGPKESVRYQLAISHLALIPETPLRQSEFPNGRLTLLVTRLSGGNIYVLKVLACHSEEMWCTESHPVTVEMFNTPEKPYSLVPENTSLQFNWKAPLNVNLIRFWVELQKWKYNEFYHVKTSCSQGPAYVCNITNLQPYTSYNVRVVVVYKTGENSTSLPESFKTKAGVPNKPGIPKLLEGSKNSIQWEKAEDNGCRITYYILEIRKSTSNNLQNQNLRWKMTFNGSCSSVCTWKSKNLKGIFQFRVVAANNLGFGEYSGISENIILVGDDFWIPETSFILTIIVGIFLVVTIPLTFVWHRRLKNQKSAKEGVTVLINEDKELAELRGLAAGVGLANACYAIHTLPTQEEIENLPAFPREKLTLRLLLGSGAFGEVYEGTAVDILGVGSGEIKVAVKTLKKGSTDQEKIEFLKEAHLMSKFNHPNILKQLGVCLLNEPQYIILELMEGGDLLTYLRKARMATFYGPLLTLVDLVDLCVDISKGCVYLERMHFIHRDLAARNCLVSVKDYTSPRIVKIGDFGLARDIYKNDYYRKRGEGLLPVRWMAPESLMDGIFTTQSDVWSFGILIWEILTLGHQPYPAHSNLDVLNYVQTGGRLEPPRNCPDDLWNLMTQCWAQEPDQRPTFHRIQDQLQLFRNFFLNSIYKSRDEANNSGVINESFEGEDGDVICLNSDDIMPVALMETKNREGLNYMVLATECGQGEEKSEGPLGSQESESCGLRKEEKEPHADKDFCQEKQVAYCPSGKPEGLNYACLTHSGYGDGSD
Text: as §1

363 human kinases (including Aurora A/B/C) (Homo sapiens, UniProt Q15418), sequence (Q15418 whole entry): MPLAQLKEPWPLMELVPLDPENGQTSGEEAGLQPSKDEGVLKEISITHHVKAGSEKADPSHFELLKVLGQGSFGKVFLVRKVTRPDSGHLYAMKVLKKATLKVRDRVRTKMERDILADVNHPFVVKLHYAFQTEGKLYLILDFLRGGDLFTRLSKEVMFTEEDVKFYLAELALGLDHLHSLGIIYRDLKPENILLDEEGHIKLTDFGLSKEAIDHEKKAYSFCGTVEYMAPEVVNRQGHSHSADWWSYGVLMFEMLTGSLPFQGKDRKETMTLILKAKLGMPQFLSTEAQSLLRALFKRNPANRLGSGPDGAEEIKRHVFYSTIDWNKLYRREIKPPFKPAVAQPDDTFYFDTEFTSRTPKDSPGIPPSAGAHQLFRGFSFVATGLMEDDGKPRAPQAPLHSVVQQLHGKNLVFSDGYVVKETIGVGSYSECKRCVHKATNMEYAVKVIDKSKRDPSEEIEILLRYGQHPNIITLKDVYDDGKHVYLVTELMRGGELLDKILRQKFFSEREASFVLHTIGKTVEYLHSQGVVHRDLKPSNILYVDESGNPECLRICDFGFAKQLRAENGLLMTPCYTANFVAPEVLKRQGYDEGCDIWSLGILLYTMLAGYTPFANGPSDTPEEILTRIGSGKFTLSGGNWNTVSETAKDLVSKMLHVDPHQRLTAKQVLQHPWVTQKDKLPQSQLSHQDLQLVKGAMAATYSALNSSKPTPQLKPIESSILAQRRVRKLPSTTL
363 human kinases (including Aurora A/B/C) (Homo sapiens, UniProt P11802), sequence (P11802 whole entry): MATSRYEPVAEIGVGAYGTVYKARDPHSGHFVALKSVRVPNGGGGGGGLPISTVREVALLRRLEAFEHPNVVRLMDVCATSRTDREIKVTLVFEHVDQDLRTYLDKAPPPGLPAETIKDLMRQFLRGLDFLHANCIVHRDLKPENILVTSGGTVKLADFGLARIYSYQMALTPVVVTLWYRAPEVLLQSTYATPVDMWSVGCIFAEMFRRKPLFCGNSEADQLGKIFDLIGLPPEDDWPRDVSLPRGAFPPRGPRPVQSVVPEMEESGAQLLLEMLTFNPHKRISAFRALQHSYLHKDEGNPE
363 human kinases (including Aurora A/B/C) (Homo sapiens, UniProt Q9UPE1), sequence (Q9UPE1 whole entry): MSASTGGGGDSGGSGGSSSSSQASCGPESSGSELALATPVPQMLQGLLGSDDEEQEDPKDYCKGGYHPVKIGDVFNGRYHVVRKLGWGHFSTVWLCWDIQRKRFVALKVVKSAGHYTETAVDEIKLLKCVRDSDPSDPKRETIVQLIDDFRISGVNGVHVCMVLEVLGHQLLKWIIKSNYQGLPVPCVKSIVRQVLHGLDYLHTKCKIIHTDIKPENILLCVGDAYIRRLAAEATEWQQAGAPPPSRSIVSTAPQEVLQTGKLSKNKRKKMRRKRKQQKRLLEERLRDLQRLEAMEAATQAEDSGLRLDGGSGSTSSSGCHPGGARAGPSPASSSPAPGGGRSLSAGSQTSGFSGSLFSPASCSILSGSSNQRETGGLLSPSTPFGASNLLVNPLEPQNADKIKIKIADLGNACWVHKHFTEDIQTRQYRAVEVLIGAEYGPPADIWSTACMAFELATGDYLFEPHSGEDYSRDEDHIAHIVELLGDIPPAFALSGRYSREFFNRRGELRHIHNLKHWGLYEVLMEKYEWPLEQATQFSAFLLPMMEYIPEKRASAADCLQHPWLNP

SMILES: O=C(O)[C@]1(Cc2cccc(Nc3nccs3)n2)CC[C@@H](Oc2cccc(Cl)c2F)CC1 [MK-5108]
- remaining activity at 0.1 µM [1]: 99%
- remaining activity at 0.5 µM ([1]; 500 nM): 85%
- remaining activity at 0.1 µM [2]: 105%
- remaining activity at 0.5 µM ([2]; 500 nM): 115%
- remaining activity at 0.1 µM ([3]; CDK4/cyclin D1, [ATP] 30 µM): 96.4%
- remaining activity at 0.5 µM ([3]; CDK4/cyclin D1, [ATP] 30 µM): 96.1%
- remaining activity at 0.1 µM ([3]; CDK4/cyclin D3, [ATP] 15 µM): 99%
- remaining activity at 0.5 µM ([3]; CDK4/cyclin D3, [ATP] 15 µM): 98.8%
- remaining activity at 0.1 µM [4]: 99.1%
- remaining activity at 0.5 µM ([4]; 500 nM): 91.2%
- remaining activity at 0.1 µM [5]: 88.7%
- remaining activity at 0.5 µM ([5]; 500 nM): 67.9%
- remaining activity at 0.1 µM [6]: 99.5%
- remaining activity at 0.5 µM ([6]; 500 nM): 101%
- remaining activity at 0.1 µM [7]: 0.98%
- remaining activity at 0.5 µM ([7]; 500 nM): 1.15%

SMILES: O=C(c1cccc(Cl)c1F)N1CCN(Cc2cccc(Nc3nccs3)n2)CC1 [MK-8745]
- % Enzyme Activity (relative to DMSO controls) ([1]; 500 nM): 93.46%
- remaining activity at 0.5 µM ([1]; 500 nM): 93.6%
- % Enzyme Activity (relative to DMSO controls) ([2]; 500 nM): 114.90%
- remaining activity at 0.5 µM ([2]; 500 nM): 115%
- % Enzyme Activity (relative to DMSO controls) ([3]; CDK4/cyclin D1, [ATP] 30 µM): 96.49%
- remaining activity at 0.5 µM ([3]; CDK4/cyclin D1, [ATP] 30 µM): 97.2%
- % Enzyme Activity (relative to DMSO controls) ([3]; CDK4/cyclin D3, [ATP] 15 µM): 93.01%
- remaining activity at 0.5 µM ([3]; CDK4/cyclin D3, [ATP] 15 µM): 93.1%
- % Enzyme Activity (relative to DMSO controls) ([4]; 500 nM): 93.60%
- remaining activity at 0.5 µM ([4]; 500 nM): 95.8%
- % Enzyme Activity (relative to DMSO controls) ([5]; 500 nM): 85.09%
- remaining activity at 0.5 µM ([5]; 500 nM): 86.1%
- % Enzyme Activity (relative to DMSO controls) ([6]; 500 nM): 95.34%
- remaining activity at 0.5 µM ([6]; 500 nM): 98%
- % Enzyme Activity (relative to DMSO controls) ([7]; 500 nM): 3.19%
- remaining activity at 0.5 µM ([7]; 500 nM): 3.49%

SMILES: CCn1cc(-c2ccnc3[nH]c(-c4cccc(CN(C)C)c4)cc23)c(-c2ccc(NC(=O)N(C)C)cc2)n1 [GSK1070916]
- remaining activity at 0.1 µM [1]: 95.5%
- remaining activity at 0.1 µM [2]: 114%
- remaining activity at 0.1 µM ([3]; CDK4/cyclin D1, [ATP] 30 µM): 97.5%
- remaining activity at 0.1 µM ([3]; CDK4/cyclin D3, [ATP] 15 µM): 95.6%
- remaining activity at 0.1 µM [4]: 90%
- remaining activity at 0.1 µM [5]: 92%
- remaining activity at 0.1 µM [6]: 95.4%
- remaining activity at 0.1 µM [7]: 102%

Reference: paper PMC4685510, “A Cell Biologist’s Field Guide to Aurora Kinase Inhibitors” (Frontiers in Oncology, 2015)
